# Patent US20110251238A1, “PPAR AGONIST COMPOSITIONS AND METHODS OF USE” (BIOPHARMED, priority 2008, published 2011)
# Experiments:
# [1] = test system: HT-22, an immortalized mouse hippocampal cell line; assay: Neuroprotection of HT-22 cells against toxic insults (calcein viability assay); assay type: cell-based
# Method: It is known (P. Aoun, 2003 Eur. J. Pharm. 472:65-71) that Peroxisome proliferator-activated receptors (PPARs) are involved in regulating many metabolic and inflammatory processes. The present invention explores the role of PPAR ligands in protecting neuronal cultures from toxic insults. For that purpose, the new PPAR agonists described in Example 1 were screened for their potential role as neuroprotective compounds. Experiments were performed using HT-22, an immortalized mouse hippocampal cell line, and SK-N-SH, a human neuroblastoma cell line. HT-22 was selected because it expresses PPARγ receptors. Cell viability against glutamate, hydrogen peroxide (H2O2), and serum deprivation insults was determined using a calcein assay. […] Additionally, compounds were protective even when administered simultaneously with glutamate, or for up to 8 h postglutamate insult.
# HT-22, an immortalized mouse hippocampal cell line, and SK-N-SH, a human neuroblastoma cell line, were used. HT-22 cells were obtained from David Schubert (Salk Institute, San Diego, Calif.). The HT-22 line was originally selected from HT-4 cells based on glutamate sensitivity. SK-N-SH cells were obtained from ATCC (Manassas, Va.). HT-22 and SK-N-SH cells were grown to confluency in Dulbecco's modified essential medium (DMEM) and RPMI-1640 media, respectively, and supplemented with 10% charcoal/dextran-treated fetal bovine serum (FBS) and […] gentamicin at 37° C. under 95% air/5% CO2. HT-22 cells were plated at a density of 50,000 cells/ml (5000 cells/well), and SK-N-SH cells were plated at a density of 120,000-150,000 cells/ml (12,000-15,000 cells/well) in 96-well plates. In most studies, wells were pretreated with PPAR ligands over a wide dose range at various times prior to being subjected to either glutamate, hydrogen peroxide, or serum deprivation insults. In some studies, the insults were applied prior to the addition of the PPAR ligand.
# The following analogues were tested on the HT22 cell line for their neuroprotective effect against glutamate insult and for their anti-inflammatory activity on relevant, models including HT22 cell line.
# U138 MG (human glioma) = assay: Growth inhibition, MTT colorimetric assay, U138; assay type: cell-based; conditions: Homo sapiens, U138-MG, 72 h; glioma; 3 days with drug; means of six values; unit inferred; read-out: IC50 U138
# In short: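 3-day continuous drug exposure; MTT readout; IC50 = mean of 6 values, SE <5% of mean.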
# SKMEL28 (human melanoma) = assay: Growth inhibition, MTT colorimetric assay, SKMEL-28; assay type: cell-based; conditions: Homo sapiens, SK-MEL-28, 72 h; melanoma; 3 days with drug; means of six values; unit inferred; read-out: IC50 SKMEL-28
# In short: (§1)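 Cells were cultured with compound for 3 days, and inhibition of proliferation was read by MTT colorimetric assay. Values are IC50, each the mean of six determinations with standard errors below 5% of the mean.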
# RhTP (rhabdomyosarcoma) = assay: Growth inhibition, MTT colorimetric assay, RhTp; assay type: cell-based; conditions: 72 h; 3 days with drug; means of six values; unit inferred; read-out: IC50 RhTp
# In short: as §1
# caspases 8 = assay: Caspases 8 activation in HL60 cells (IEDT reagent); assay type: cell-based, human; conditions: 48 hours, 1 μM, 0.1 μM and 0.01 μM
# From the text: 7223, using standard commercially available diagnostic kits (Calbiochem, USA). Assay reagents used were DEVD for caspases 3/7, […] for caspases 8, and LEHD for caspases 9. Moreover, colchicine was used as reference compound that induces this activity of caspases.
# Hs683 (human glioma) = assay: Growth inhibition, MTT colorimetric assay, HS683; assay type: cell-based; conditions: Homo sapiens, Hs 683, 72 h; glioma; 3 days with drug; means of six values; unit inferred; read-out: IC50 HS683
# In short: (§2)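 Human tumour cell lines were exposed to compounds for 3 days. Proliferation inhibition was read by MTT colorimetric assay and expressed as IC50. Values are means of six determinations.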
# [2] = test system: KB3 (epitheloid lung cancer) cell lines; assay: Cell growth inhibition (cytotoxicity), MTS assay, KB3 cell line; assay type: cell-based
# Method: Cell growth inhibition was determined by the MTS assay; the number of viable cells were proportional to the extent of formazan production in the presence or absence of drugs. […]
# KaKa = assay: Growth inhibition, MTT colorimetric assay, KaKa; assay type: cell-based; conditions: 72 h; 3 days with drug; means of six values; unit inferred; read-out: IC50 KaKa
# In short: as §1
# [3] = test system: BxPC3 (pancreatic cancer); assay: Growth inhibition, MTT colorimetric assay, BxPC3; assay type: cell-based, human; conditions: Homo sapiens, BXPC-3, 72 h; carcinoma; 3 days with drug; means of six values; unit inferred; read-out: IC50 BxPC3
# In short: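 Cells were cultured at 37° C with 5% CO2 in the presence of drug for 3 days. Proliferation was read by MTT absorbance at 570 nm. IC50 values are means of six distinct values.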
# [4] = test system: orthotopic grafts of human glioblastoma cell lines; assay: Orthotopic grafts of human glioblastoma cell lines in brains of nude mice, survival; assay type: in vivo; conditions: FIG. 1
# Method: Additional in vivo experiments were carried on nude mice. Briefly, orthotopic grafts of human glioblastoma cell lines were implanted into the brains of nude mice according to the general methodology of Branle et al., (2002) Cancer, 95, 641-655) and Lefranc et al., (2004) Clin. Can. Res., 10, 8250-8265. […] Results are shown in FIG. 1, illustrating the comparative activity of the PPAR agonist BPM18,708 and the reference drug Temodar™ (temozolomide) the only FDA approved drug for glioblastoma grade IV.
# LoVo (colon cancer) = assay: Growth inhibition, MTT colorimetric assay, LoVo; assay type: cell-based; conditions: Homo sapiens, LoVo, 72 h; carcinoma; 3 days with drug; means of six values; unit inferred; read-out: IC50 LoVo
# In short: as §2
structure (smiles),measurement,setting,value
"Oc1ccc(CN(Cc2ccc(C(F)(F)F)cc2)Cc2ccc(O)c3ncccc23)c2cccnc12 [BPM18,708, 5,5′-(4-(trifluoromethyl)benzylazanediyl)bis(methylene)diquinolin-8-ol]",neuroprotection from H2O2 insult,[1],dose-dependent neuroprotection
same,neuroprotection from glutamate insult,[1],dose-dependent neuroprotection
same,IC50,U138 MG (human glioma),49 nM
same,IC50,SKMEL28 (human melanoma),> 10000 nM
same,IC50,RhTP (rhabdomyosarcoma),81 nM
same,activation of caspases 8,caspases 8,no effect
same,IC50,Hs683 (human glioma),10 nM
same,IC50,"[2]; KB3, Table 3A, MTS assay, triplicate, read-out: KB3 IC50",1 nM
same,cytotoxic activity in words,"[2]; KB3 cell line, structure-cytotoxicity discussion",most active analogue
same,IC50,KaKa,1580 nM
same,IC50,[3],4300 nM
same,in vivo activity (survival) compared with Temodar,[4],at least as active as Temodar™
same,IC50,LoVo (colon cancer),10 nM
